These results are taken from ChEMBL document CHEMBL5126537, “Influenza-existing drugs and treatment prospects” (Eur J Med Chem, 2022).

Each structure is given as a SMILES string.

One data set deals with Influenza A virus. Kind of data set: Antiviral activity against Influenza A virus A/PR/8/34 (H1N1) infected in MDCK cells assessed as inhibition of viral entry preincubated for 1 hr followed by infection in MDCK cells measured after 1 hr by focus forming assay. Format: functional, organism-based.
The nature of data set [1]: Cytotoxicity against MDCK cells. Format: toxicity, cell-based, Canis lupus familiaris. Particulars: dog.
A short description of data set [2]: Elimination half life in INH dosed mouse lungs. The data set is classed as ADME, organism-based, Lung. The following applies: in vivo, inhaled_or_intranasal.

A word on the IC50: it is the point on the concentration scale where inhibition reaches its midpoint. With `COc1cc(OC)c2c(=O)c(O)c(-c3ccc(OC)c(OC)c3)oc2c1`, in the data set on Influenza A virus, the IC50 was 36 µM.

The CC50 is the concentration that lowers cell viability or growth by half. A higher CC50 goes with better tolerance by the cells. `NC(=O)c1nc(F)c[nH]c1=O` [FAVIPIRAVIR] showed a 50% cytotoxic concentration (CC50) in data set [1] of over 2000 µg/mL.

`CCCCCCCC(=O)OC[C@@H](O)[C@@H](OC)[C@@H]1OC(C(=O)O)=C[C@H](NC(=N)N)[C@H]1NC(C)=O` [LANINAMIVIR OCTANOATE] showed a t1/2 in data set [2] of 41 h.
